Results on five compounds are retold here after ChEMBL document CHEMBL1201862, “PubChem BioAssay data set” (2004).

The source made the active and inactive calls.

The nature of assay [1]: M. tuberculosis H37Rv growth inhibitors, H37Rv strain (AID 1626). It counts as functional.
Assay [2] is described as follows: fluconazole-exposed Candida albicans growth modulators – fluorescence, retest, confirmation (AID 2467). The assay is classed as functional, cell-based.
In a further assay the target is Prothrombin (Bos taurus, UniProt P00735). In words: thrombin protease inhibitors – biochemical, fluorescence polarization, uHTS hits, dose response (AID 602369). The assay is classed as functional.
Assay [3] can be described thus: viability of PTEN-deleted HCT116 cells – cell-based, HCT116 PTEN knockout, dose response (AID 1047).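 Note: HCT116 colon tumor cells with PTEN knocked out; cells exposed to compound for 60 hours before readout; potency for loss of cell viability measured by luminescence.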 The assay is classed as functional.
The target of assay [4] is ATP-dependent molecular chaperone HSP82 (Candida albicans (strain WO-1) (Yeast), UniProt C4YTQ8). In words: steroid-induced GRE reporter decrease in yeast – S. cerevisiae, luminescence, Hsp90 inhibitor project, dose response (AID 2400).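 Note: beta-galactosidase luminescence from glucocorticoid response element reporter as proxy for Hsp90 function; inhibitor potency where signal loss means Hsp90 inhibition.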 The assay is classed as functional, cell-based.
ATP-dependent molecular chaperone HSP82, sequence (C4YTQ8 whole entry): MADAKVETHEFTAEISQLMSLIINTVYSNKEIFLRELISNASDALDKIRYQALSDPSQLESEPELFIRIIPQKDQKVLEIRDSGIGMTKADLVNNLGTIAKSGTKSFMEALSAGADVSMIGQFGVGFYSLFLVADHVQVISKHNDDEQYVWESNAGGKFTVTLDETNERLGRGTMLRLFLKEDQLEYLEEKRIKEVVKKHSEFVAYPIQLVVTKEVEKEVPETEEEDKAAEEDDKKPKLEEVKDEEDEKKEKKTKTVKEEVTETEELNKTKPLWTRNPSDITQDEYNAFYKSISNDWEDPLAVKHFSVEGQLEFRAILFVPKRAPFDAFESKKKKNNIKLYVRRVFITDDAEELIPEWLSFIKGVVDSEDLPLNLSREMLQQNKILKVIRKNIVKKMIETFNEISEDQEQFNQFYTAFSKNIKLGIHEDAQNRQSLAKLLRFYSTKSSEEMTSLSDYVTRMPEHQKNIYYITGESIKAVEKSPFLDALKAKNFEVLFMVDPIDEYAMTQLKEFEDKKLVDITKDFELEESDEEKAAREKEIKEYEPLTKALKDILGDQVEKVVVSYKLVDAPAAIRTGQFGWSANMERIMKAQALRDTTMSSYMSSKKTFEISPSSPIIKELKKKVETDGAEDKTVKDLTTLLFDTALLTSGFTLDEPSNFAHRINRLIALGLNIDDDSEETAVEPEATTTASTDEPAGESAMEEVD
Assay [5] can be described thus: viability of HCT116 lacking mutant beta-catenin – cell-based, human colon tumor, dose response (AID 1045).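 Note: HCT116 colon tumor cells with beta catenin knocked out; cells exposed to compound for 60 hours.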 It counts as functional.
Assay [6] is described as follows: NIH-3T3 fibroblast cytotoxicity, dose response, cytotoxicity control, cell-based, fluorescence, Alamar Blue, secondary assay (AID 2327).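 Note: NIH-3T3 mouse fibroblasts cultured with fluconazole at 8 µg/mL.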 It counts as functional.
Assay [7] addresses 26S proteasome non-ATPase regulatory subunit 14 (Homo sapiens, UniProt O00487). In words: inhibition of proteasome subunit RPN11 – biochemical, fluorescence polarization, uHTS hits, confirmation (AID 602368). The assay is classed as functional.
Assay [8] has as its target T1, Serine/threonine-protein phosphatase (Candida dubliniensis (strain CD36 / CBS 7987 / NCPF 3949 / NRRLY-17841) (Yeast), UniProt B9W6M3).
T1 sequence (B9W6M3 whole entry): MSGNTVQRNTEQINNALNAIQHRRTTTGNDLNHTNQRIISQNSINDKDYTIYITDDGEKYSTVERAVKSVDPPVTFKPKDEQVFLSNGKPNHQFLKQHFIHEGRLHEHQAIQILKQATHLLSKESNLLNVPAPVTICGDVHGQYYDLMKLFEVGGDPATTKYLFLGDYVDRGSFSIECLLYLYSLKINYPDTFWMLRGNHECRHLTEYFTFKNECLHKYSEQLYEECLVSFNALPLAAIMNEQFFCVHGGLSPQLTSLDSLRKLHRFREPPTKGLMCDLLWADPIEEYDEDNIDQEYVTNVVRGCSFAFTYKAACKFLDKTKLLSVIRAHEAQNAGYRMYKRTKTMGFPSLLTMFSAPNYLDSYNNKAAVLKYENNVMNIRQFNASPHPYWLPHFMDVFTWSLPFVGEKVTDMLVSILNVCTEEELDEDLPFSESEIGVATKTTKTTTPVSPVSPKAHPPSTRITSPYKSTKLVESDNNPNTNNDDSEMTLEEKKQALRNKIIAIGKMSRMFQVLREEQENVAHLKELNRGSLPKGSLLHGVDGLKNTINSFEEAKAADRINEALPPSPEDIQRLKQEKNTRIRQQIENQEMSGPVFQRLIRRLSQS
The assay is described as follows: blockers of CaCl2-induced CDRE-lacZ signaling – S. cerevisiae, luminescence, secondary, dose response (AID 2388).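 Note: yeast reporter cells carrying a calcineurin-responsive lacZ construct stimulated with calcium chloride; luminescent beta-galactosidase reporter signal in whole cells rather than isolated phosphatase activity; potency for inhibition where a drop in reporter signal means calcineurin blockade.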 It counts as functional, cell-based.

Assay [9] has as its target T2, Zinc finger protein mex-5 (Caenorhabditis elegans, UniProt Q9XUB2).
T2 sequence (Q9XUB2 whole entry): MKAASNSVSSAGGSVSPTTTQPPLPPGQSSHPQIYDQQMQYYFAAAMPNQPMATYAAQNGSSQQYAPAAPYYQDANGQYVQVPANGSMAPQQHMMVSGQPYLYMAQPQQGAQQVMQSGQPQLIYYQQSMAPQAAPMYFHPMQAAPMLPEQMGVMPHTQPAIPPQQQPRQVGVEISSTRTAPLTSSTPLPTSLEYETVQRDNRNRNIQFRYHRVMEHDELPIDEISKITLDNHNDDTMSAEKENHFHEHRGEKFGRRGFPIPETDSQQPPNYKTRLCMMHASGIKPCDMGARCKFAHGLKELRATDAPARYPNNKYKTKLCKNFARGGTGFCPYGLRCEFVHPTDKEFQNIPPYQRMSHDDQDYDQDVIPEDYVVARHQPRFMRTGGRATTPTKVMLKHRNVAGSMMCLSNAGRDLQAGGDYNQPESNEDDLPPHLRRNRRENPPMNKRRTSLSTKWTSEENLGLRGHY
The assay is described as follows: potency of MEX-5 RNA-binding blockers – biochemical, C. elegans, fluorescence polarization, dose response (AID 1960).

Assay [10] addresses Protein-tyrosine kinase 2-beta (Homo sapiens, UniProt Q14289).
The target of assay [11] is T3, RNA-binding protein pos-1 (Caenorhabditis elegans, UniProt G5EF15).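 Note: purified POS-1 fused to maltose binding protein made in E. coli; potency of compounds blocking POS-1 binding to fluorescent RNA.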
T3 sequence (G5EF15 whole entry): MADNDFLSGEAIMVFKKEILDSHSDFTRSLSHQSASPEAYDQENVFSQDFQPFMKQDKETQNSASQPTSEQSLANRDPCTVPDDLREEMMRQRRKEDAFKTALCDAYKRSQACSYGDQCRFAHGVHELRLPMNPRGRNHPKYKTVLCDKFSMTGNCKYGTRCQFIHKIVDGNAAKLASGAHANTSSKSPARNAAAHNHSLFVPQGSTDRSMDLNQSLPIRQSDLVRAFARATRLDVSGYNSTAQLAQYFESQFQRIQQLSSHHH
In words: disruptors of C. elegans POS-1 RNA interaction – biochemical, fluorescence polarization, dose response (AID 1964). (Fluorescence polarisation rises when a labelled molecule tumbles more slowly, as on binding a larger partner.)

For assay [12], the target named is 72 kDa type IV collagenase (Homo sapiens, UniProt P08253). The assay is described as follows: Dose Response validation of uHTS RPN11 inhibitor hits using a MMP-2 Fluorescence assay. It counts as functional.
72 kDa type IV collagenase, sequence (P08253 whole entry): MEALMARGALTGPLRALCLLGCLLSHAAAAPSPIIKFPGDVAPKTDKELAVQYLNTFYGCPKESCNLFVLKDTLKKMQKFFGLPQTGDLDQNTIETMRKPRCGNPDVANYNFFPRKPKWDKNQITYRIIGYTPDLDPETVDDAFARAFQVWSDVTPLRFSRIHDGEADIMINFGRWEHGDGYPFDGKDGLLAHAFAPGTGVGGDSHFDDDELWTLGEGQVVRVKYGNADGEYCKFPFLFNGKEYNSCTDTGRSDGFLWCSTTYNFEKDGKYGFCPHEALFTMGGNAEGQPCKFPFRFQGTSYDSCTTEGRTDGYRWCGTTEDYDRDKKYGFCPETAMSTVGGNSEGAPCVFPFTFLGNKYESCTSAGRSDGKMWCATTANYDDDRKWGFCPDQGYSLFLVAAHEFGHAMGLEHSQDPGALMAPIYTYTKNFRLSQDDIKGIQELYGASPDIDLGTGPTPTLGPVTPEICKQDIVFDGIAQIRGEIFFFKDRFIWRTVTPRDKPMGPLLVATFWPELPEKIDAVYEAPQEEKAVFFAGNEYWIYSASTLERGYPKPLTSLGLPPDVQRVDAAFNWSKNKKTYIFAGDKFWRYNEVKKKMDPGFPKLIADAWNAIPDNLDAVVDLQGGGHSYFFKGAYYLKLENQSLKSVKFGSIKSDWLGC
Another assay deals with Estrogen receptor beta (Homo sapiens, UniProt Q92731). The assay is described as follows: blockers of SRC-3 recruitment to ERβ – biochemical, ELISA, streptavidin-HRP readout, orthogonal assay, confirmation (AID 1060). (In an ELISA, binding on a coated surface is turned into a signal by an enzyme label.)
Estrogen receptor beta, sequence (Q92731 whole entry): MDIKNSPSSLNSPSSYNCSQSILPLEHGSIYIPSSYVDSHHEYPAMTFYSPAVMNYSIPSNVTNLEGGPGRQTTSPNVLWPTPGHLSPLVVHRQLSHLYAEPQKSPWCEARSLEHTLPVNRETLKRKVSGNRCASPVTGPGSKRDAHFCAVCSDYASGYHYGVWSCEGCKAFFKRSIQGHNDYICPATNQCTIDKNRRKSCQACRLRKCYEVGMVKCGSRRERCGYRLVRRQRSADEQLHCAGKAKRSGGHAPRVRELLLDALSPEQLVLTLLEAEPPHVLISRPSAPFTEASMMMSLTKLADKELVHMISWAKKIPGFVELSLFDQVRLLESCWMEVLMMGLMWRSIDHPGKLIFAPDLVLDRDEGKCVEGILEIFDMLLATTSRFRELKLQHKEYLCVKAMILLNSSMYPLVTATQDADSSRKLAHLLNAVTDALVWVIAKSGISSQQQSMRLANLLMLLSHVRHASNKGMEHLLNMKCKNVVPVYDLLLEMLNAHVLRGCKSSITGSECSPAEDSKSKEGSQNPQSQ
The target of a further assay is T4, Estrogen receptor (Homo sapiens, UniProt P03372).
T4 sequence (P03372 whole entry): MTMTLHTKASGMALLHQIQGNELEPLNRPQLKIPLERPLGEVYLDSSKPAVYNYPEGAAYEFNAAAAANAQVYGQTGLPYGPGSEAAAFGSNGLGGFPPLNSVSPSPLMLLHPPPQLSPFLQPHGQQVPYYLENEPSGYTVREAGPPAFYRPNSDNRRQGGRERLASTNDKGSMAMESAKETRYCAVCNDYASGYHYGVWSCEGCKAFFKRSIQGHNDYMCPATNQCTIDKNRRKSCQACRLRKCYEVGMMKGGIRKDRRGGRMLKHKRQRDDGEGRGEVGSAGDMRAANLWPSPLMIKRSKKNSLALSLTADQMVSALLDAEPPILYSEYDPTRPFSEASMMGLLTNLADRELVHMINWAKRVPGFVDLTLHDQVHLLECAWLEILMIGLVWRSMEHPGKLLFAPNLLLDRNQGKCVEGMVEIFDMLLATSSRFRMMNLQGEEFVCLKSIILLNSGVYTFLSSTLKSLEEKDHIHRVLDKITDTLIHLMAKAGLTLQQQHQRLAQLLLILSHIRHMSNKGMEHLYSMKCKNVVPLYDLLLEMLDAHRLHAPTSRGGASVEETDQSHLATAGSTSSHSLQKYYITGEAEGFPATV
In words: blockers of SRC-3 recruitment to ERα – biochemical, ELISA, streptavidin-HRP readout, orthogonal assay, confirmation (AID 1079).

Another assay concerns the target Bcl-2-like protein 10 (Homo sapiens, UniProt Q9HD36). In words: Concentration-response of Bcl-B inhibitors by biochemical FP with TR3 (AID 1243). The assay is classed as functional.
In another assay the target is Aspartyl aminopeptidase (Plasmodium falciparum 3D7, UniProt Q8I2J3). In words: Counterscreen for inhibitors of M1 and M17 aminopeptidases: QFRET-based biochemical high throughput dose response assay for inhibitors of the Plasmodium falciparum M18 Aspartyl Aminopeptidase (PFM18AAP). [Related PubChem assays: 1619 (Screening assay (M17LAP inhibitors).), 1445 (Screening assay (M1AAP inhibitors).)]. A general note: A counterscreen serves to expose hits that act by an unwanted route or on another target.
Aspartyl aminopeptidase, sequence (Q8I2J3 whole entry): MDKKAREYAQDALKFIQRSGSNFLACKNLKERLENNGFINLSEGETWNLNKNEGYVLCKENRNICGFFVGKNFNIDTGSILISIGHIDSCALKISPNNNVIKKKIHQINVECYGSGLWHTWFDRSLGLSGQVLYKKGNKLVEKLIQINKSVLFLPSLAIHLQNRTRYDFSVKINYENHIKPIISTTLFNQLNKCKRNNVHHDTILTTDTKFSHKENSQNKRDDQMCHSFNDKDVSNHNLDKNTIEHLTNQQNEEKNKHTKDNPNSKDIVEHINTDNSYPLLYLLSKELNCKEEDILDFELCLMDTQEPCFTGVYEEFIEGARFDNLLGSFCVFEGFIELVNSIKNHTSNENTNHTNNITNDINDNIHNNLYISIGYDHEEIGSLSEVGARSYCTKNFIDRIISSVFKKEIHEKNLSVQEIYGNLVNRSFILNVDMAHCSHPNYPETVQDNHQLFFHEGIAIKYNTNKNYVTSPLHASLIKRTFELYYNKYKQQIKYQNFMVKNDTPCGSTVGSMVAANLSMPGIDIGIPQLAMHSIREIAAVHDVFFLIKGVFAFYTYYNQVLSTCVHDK

A further assay concerns the target Procathepsin L (Homo sapiens, UniProt P07711). In words: CTSL1 protease inhibition – biochemical, QFRET, 1536-well, counter-screen for M1/M17 aminopeptidase inhibitor project, dose response (AID 2214).
The next assay has as its target T5, Aminopeptidase N (Plasmodium falciparum FcB1/Columbia, UniProt O96935).
T5 sequence (O96935 whole entry): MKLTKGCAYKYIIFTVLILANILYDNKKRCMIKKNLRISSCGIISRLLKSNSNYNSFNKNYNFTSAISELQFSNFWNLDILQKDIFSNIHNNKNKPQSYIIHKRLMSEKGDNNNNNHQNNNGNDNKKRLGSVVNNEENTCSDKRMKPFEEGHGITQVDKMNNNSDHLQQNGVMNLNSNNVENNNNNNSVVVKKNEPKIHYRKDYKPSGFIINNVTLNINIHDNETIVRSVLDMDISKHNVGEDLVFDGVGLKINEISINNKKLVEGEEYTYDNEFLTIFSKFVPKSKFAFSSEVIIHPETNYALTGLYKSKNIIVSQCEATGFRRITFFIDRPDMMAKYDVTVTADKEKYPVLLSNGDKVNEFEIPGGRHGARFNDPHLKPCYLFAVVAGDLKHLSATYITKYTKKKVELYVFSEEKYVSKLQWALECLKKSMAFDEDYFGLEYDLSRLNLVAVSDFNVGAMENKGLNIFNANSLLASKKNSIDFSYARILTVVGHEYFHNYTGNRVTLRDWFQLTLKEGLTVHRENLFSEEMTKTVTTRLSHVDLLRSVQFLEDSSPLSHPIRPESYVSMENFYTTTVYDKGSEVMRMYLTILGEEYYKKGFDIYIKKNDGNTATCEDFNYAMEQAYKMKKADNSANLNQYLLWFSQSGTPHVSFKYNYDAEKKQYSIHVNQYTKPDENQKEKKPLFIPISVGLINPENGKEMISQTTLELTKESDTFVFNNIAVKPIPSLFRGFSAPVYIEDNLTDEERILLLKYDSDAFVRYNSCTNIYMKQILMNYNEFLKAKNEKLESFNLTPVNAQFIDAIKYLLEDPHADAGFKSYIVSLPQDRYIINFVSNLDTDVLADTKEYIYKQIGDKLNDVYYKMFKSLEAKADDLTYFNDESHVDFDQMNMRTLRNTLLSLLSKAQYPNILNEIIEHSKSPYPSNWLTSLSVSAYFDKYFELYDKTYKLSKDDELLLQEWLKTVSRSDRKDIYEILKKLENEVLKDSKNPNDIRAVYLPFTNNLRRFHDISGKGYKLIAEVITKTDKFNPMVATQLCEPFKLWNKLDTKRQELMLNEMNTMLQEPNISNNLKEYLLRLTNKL
The assay is described as follows: malaria alanyl aminopeptidase activity blockers – biochemical, fluorogenic H-Leu-NHMec substrate, 1536-well (AID 1445). Also on record: species or system Plasmodium falciparum 3D7, 3D7.

One may read the IC50 as the concentration that gives 50% inhibition. A word on the EC50: it is the concentration that produces a half-maximal response.

Procathepsin L, sequence (P07711 whole entry): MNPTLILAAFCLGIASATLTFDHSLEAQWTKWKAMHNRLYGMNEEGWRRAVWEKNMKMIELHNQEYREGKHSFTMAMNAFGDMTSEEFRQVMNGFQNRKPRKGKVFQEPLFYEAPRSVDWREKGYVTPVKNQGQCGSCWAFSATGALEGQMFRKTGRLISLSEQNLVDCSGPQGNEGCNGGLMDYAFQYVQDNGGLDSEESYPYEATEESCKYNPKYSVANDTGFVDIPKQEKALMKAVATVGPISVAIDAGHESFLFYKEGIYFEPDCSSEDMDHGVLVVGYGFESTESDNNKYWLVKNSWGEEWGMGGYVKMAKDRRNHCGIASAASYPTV
26S proteasome non-ATPase regulatory subunit 14, sequence (O00487 whole entry): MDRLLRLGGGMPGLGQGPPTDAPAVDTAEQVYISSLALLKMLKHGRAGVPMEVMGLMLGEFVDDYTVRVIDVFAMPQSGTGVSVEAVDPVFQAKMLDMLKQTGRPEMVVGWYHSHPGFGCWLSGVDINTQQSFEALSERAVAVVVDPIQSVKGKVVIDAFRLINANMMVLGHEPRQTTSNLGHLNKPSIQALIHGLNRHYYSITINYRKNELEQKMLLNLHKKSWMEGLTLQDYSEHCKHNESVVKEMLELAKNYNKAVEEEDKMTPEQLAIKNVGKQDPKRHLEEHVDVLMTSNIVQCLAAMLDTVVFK
Protein-tyrosine kinase 2-beta, sequence (Q14289 whole entry, the tested form may be a part): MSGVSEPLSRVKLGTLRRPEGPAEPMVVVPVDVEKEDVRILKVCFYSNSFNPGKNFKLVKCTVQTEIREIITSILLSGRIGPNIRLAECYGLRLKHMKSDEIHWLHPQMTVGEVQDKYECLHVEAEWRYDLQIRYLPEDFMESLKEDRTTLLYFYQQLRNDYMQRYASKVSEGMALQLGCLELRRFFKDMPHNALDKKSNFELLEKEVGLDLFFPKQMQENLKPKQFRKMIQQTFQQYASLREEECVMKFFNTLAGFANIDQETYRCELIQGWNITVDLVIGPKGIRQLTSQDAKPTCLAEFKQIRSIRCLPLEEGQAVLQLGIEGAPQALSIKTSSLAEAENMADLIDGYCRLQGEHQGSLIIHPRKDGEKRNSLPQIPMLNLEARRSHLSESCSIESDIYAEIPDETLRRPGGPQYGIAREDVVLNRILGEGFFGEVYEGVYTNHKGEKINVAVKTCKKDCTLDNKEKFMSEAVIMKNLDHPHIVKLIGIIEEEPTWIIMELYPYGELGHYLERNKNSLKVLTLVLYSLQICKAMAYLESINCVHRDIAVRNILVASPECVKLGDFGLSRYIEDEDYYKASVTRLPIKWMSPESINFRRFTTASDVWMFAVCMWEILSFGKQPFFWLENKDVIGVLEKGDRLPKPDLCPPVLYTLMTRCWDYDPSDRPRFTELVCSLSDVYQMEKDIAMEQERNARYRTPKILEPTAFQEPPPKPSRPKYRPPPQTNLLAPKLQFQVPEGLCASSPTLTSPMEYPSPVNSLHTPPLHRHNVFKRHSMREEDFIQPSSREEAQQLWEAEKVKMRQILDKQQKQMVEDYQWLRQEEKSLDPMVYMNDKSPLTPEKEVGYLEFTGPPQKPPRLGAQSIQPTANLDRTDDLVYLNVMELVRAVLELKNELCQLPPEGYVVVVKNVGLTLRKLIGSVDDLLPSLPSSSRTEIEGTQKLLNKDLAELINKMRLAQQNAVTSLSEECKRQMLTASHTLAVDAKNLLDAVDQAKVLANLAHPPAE
Bcl-2-like protein 10, sequence (Q9HD36 whole entry): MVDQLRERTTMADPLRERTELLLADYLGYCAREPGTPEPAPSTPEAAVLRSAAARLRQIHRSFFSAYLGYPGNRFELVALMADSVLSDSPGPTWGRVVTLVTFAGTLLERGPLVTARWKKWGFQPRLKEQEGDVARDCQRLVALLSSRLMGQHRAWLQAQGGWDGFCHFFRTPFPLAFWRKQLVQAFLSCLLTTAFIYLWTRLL

With `CCOC(=O)c1ccc(NC(=O)c2nnc(O)c3ccccc23)cc1`, the IC50 in assay [1] was > 100 µM (active).

Take `COC(=O)c1ccc(COc2ccc(/C=C(\C#N)c3nc4ccccc4[nH]3)cc2OC)o1`: the EC50 was 3.83 µM (active) in assay [2]; 79.7 µM (active) in [3]; > 160 µM (inactive) in [4]; 88.4 µM (active) in assay [5]; > 160 µM (inconclusive) in assay [6]; > 180 µM (inactive) in assay [8]. In addition, the EC50 in [9] and in [11] was > 300 µM (not active) throughout. Moreover, the half-maximal inhibitory concentration (IC50) is 11.4 µM (active) on Prothrombin, 4.93 µM (active) in assay [7], > 69.5 µM (not active) in assay [10] and > 100 µM (inactive) in assay [12].

Consider `N#Cc1ccccc1N1CCN(C(=O)CCCCCn2c(=S)[nH]c3ccccc3c2=O)CC1`, for which the IC50 was 0.957 µM (not active) at Estrogen receptor beta and 0.09 µM (not active) against Estrogen receptor.

On to `Cc1ccc(C)n1-c1cc(C(=O)O)cc(C(=O)O)c1`, for which, at Bcl-2-like protein 10, the concentration giving a half-maximal response (EC50) is 0.54 µM (active).

`O=C(NCCC1=CCCCC1)C1CCN(S(=O)(=O)c2ccc(Br)s2)CC1`: the figures for the IC50 at Aspartyl aminopeptidase, against Procathepsin L and at Aminopeptidase N were > 73.5 µM (not active), > 59.6 µM (not active) and 13.2 µM (active), respectively.
